Test results: ChEMBL document CHEMBL1137975, “DNA binding ligands with in vivo efficacy in murine models of bacterial infection: optimization of internal aromatic amino acids” (2004)
In brackets after ≈: the same amount, converted by molar mass.

How the values were obtained:
[1] = Minimum inhibitory concentration in mice against antimicrobial activity in […] (PISP 49619).; format: functional; conditions: Streptococcus pneumoniae
Staphylococcus aureus = test: Minimum inhibitory concentration in mice against antimicrobial activity in methicillin-resistant Staphylococcus aureus(MRSA 27660).; format: functional
Enterococcus faecalis = test: Minimum inhibitory concentration in mice against antimicrobial activity in vancomycin-sensitive Enterococcus faecalis (VSEF 29212).
Mus musculus [2] = species on record: Mus musculus; test: Minimum inhibitory concentration was evaluated in mice against antimicrobial activity in methicillin-resistant Staphylococcus aureus(MRSA 27660); 1-2; format: functional
Mus musculus [3] = species on record: Mus musculus; test: Minimum inhibitory concentration was evaluated in mice against antimicrobial activity in […] (PISP 49619); 0.13-0.25; format: functional
Mus musculus [4] = species on record: Mus musculus; test: Minimum inhibitory concentration was evaluated in mice against antimicrobial activity in […] (PISP 49619); 0.5-1; format: functional

Structure (SMILES) | MIC [1] [mg/L] | MIC (Staphylococcus aureus) [mg/L] | MIC (Enterococcus faecalis) [mg/L] | MIC (Mus musculus [2]) [mg/L] | MIC (Mus musculus [3]) [mg/L] | MIC (Mus musculus [4]) [mg/L]
Cn1cc(NC(=O)c2sccc2Cl)cc1C(=O)Nc1cc(C(=O)Nc2cccc(C(=O)NCCN3CCOCC3)c2)n(C)c1 | 8 (≈ 12.5 µM) | 16 (≈ 25.1 µM) | 16 (≈ 25.1 µM) |  |  | 
Cn1cc(NC(=O)c2ccc(NC(=O)c3cc(NC(=O)c4ccc(F)cc4F)cn3C)cc2)cc1C(=O)NCCN1CCOCC1 | 0.5 (≈ 0.789 µM) | 32 (≈ 50.5 µM) | 8 (≈ 12.6 µM) |  |  | 
Cn1cc(NC(=O)c2ccc(NC(=O)c3cc(NC(=O)c4ccccn4)cn3C)cc2)cc1C(=O)NCCN1CCOCC1 | 0.5 (≈ 0.835 µM) | > 32 | > 32 |  |  | 
Cn1cc(NC(=O)c2cc(NC(=O)c3cc(NC(=O)c4sccc4Cl)nn3C)cn2C)cc1C(=O)NCCN1CCOCC1 | 0.25 (≈ 0.389 µM) | 8 (≈ 12.5 µM) | 8 (≈ 12.5 µM) |  |  | 
Cn1cc(NC(=O)c2ccc(NC(=O)c3cc(NC(=O)c4nccc5ccccc45)cn3C)cc2)cc1C(=O)NCCN1CCOCC1 | 0.25 (≈ 0.385 µM) | 1 (≈ 1.54 µM) | 2 (≈ 3.08 µM) |  |  | 
Cn1cc(NC(=O)c2sccc2Cl)cc1C(=O)Nc1cc(C(=O)Nc2cn(C)c(C(=O)NCCN3CCOCC3)n2)n(C)c1 | > 32 | > 32 | > 32 |  |  | 
Cn1cc(NC(=O)c2ccc(NC(=O)c3cc(NC(=O)c4cc5cc6c(cc5cn4)OCO6)cn3C)cc2)cc1C(=O)NCCN1CCOCC1 | 0.5 (≈ 0.722 µM) | 0.06 (≈ 0.0866 µM) | 0.5 (≈ 0.722 µM) |  |  | 
Cn1cc(NC(=O)c2sccc2Cl)cc1C(=O)Nc1cc(C(=O)Nc2c[nH]c(C(=O)NCCN3CCOCC3)c2)n(C)c1 | 8 (≈ 12.8 µM) | 16 (≈ 25.5 µM) | 32 (≈ 51 µM) |  |  | 
Cn1cc(NC(=O)c2cccc(NC(=O)c3cc(NC(=O)c4sccc4Cl)cn3C)c2)cc1C(=O)NCCN1CCOCC1 | > 32 | > 32 | > 32 |  |  | 
Cn1cc(NC(=O)c2cc(NC(=O)c3cc(NC(=O)c4cc5ccccc5cn4)cs3)cn2C)cc1C(=O)NCCN1CCOCC1 |  |  |  | 2 (≈ 3.05 µM) | 0.25 (≈ 0.382 µM) | 
Cn1cc(NC(=O)c2cc(NC(=O)c3cccc(NC(=O)c4sccc4Cl)c3)cn2C)cc1C(=O)NCCN1CCOCC1 | > 32 | > 32 | > 32 |  |  | 
CC(=O)NCC1CN(c2ccc(N3CCOCC3)c(F)c2)C(=O)O1 (single isomer, unassigned) [LINEZOLID] | 1 (≈ 2.96 µM) |  |  |  |  | 
Cn1cc(NC(=O)c2cc(NC(=O)c3cc(NC(=O)c4cc5ccccc5cn4)c[nH]3)cn2C)cc1C(=O)NCCN1CCOCC1 |  |  | 0.5 (≈ 0.784 µM) | 2 (≈ 3.14 µM) |  | 1 (≈ 1.57 µM)
CC(C)n1cc(NC(=O)c2cc(NC(=O)c3sccc3Cl)cn2C)cc1C(=O)Nc1cc(C(=O)NCCN2CCOCC2)n(C)c1 | 0.5 (≈ 0.747 µM) | 1 (≈ 1.49 µM) | 1 (≈ 1.49 µM) |  |  | 
Cn1cc(NC(=O)c2ccc(NC(=O)c3cc(NC(=O)c4cc5cc6c(cc5s4)OCO6)cn3C)cc2)cc1C(=O)NCCN1CCOCC1 | 0.5 (≈ 0.717 µM) | 32 (≈ 45.9 µM) | > 32 |  |  | 
Cn1cc(NC(=O)c2ccc(NC(=O)c3cc(NC(=O)c4sc5ccccc5c4Cl)cn3C)cc2)cc1C(=O)NCCN1CCOCC1 | 0.25 (≈ 0.363 µM) | > 32 | 16 (≈ 23.2 µM) |  |  | 
Cn1cc(NC(=O)c2nc(NC(=O)c3cc(NC(=O)c4sccc4Cl)cn3C)cn2C)cc1C(=O)NCCN1CCOCC1 | 16 (≈ 24.9 µM) | > 32 | > 32 |  |  | 
Cn1cc(NC(=O)c2cc(NC(=O)c3cc(NC(=O)c4cc5ccccc5cn4)cn3C)cn2C)cc1C(=O)NCCN1CCOCC1 | 0.06 (≈ 0.0921 µM) | 0.5 (≈ 0.767 µM) | 0.25 (≈ 0.384 µM) |  |  | 
Cn1cc(NC(=O)c2ccc(NC(=O)c3cc(NC(=O)c4ccncn4)cn3C)cc2)cc1C(=O)NCCN1CCOCC1 | 0.5 (≈ 0.834 µM) | > 32 | 32 (≈ 53.4 µM) |  |  | 
Cn1cc(NC(=O)c2cc(NC(=O)c3cc(NC(=O)c4cc5ccccc5cn4)on3)cn2C)cc1C(=O)NCCN1CCOCC1 | 0.13 (≈ 0.203 µM) | 0.06 (≈ 0.0938 µM) | 0.5 (≈ 0.782 µM) |  |  | 
